Laboratory results published in PubChem BioAssay AID504562 (Southern Research Specialized Biocontainment Screening …, 2011).
Active and inactive are the calls of the source. How the calls were made is not given here. Residues, ends and D or L forms follow the SMILES beside them. *: point of attachment. Cbz = O=C(OCc1ccccc1)*

Experiments:
[1] = mammalian cell cytotoxicity, dose response, cytotoxicity control for M. tuberculosis growth inhibitor project, purified and synthesized compounds, set 2 (AID 504562); conditions: mammalian cell viability, cytotoxicity counter-screen; at 100 µM (top of the series)
[2] = test system: mammalian cell viability, cytotoxicity counter-screen; experiment: as above

Row | SMILES | viability [1] | CC50 [2]
1 | CCc1ccc(/C=C2/C(=O)N(C)C(=S)N2CC(=O)OC)s1 | 101% (inactive) | –
2 | O=C(CSc1nc2ccccc2c(=O)[nH]1)NC1CCCCC1 | 97.5% (inactive) | –
3 | O=C(/C=C\c1cccs1)N1CCN(Cc2ccc3c(c2)OCO3)CC1 | 91.2% (inactive) | –
4 | Cc1ccc(C(=O)N/N=C(/CC(=O)c2cccs2)C(F)(F)F)cc1 | – | 31.7 µM
5 | CC1CCN(C(=O)C2CCN(c3nnc(-n4cccc4)s3)CC2)CC1 | 92.8% (inactive) | –
6 | CCC(C)Nc1ccc(NC(C)CC)cc1 (stereo unspecified) | – | 16.5 µM
7 | COC(=O)c1ccc(CNc2c(N3CCCC3)c(=O)c2=O)cc1 | 97.3% (inactive) | –
8 | CC[N+](C)(CC)CCCCOc1ccc2c(c1)C(=O)c1cc(OCCCC[N+](C)(CC)CC)ccc1-2 | 101% (inactive) | –
9 | Cc1ccc(NC(=O)C2C3/C=C\CCCCC32)cc1C (stereo unspecified) | 97% (inactive) | –
10 | COC(=O)CCc1nc2c(C#N)c(-c3ccc(Cl)cc3)ccn2n1 | 99.6% (inactive) | –
11 | CNc1nc(SCc2ccccc2Cl)nc2c1CCCC2 | – | 46.1 µM
12 | Cc1cccc(/C=C/C(=O)c2ccc([N+](=O)[O-])o2)c1 | – | 53.1 µM
13 | CCOC1OC(=O)C(Cl)=C1Nc1ccccc1C (stereo unspecified) | 91.1% (inactive) | –
14 | CCOC(=O)CNC(=O)[C@H](Cc1ccccc1)NC(=O)OCc1ccccc1 (Cbz-Phe-Gly-OEt) | – | 68.9 µM
15 | O=C(CSc1nc2ccccc2c(=O)[nH]1)NCc1ccc(Cl)cc1 | 89.5% (inactive) | –
16 | CC(C)NC(=O)c1sc(=S)n2c1[nH]c(=O)c1ccc(C(=O)NCCc3ccc(Cl)cc3)cc12 | – | 68.8 µM

Row | SMILES | viability [1] | CC50 [2]
17 | CC(=NCc1ccc2c(c1)OCO2)C1=C(O)c2ccccc2C1=O | 88.7% (inactive) | –
18 | CCOC(=O)COc1ccc(/C=C2\NC(=S)N(CC)C2=O)cc1 | 91.2% (inactive) | –
19 | CCOC(=O)c1ccc(NC(=O)Cn2ncc(Cl)c(Cl)c2=O)cc1 | – | 7.7 µM
20 | Cc1ccc2c(c1)c(C1=c3ccccc3=NC1=O)c(O)n2C | – | 14.3 µM
21 | COC(=O)c1cc(=O)n(-c2ccc(F)cc2)c(=Nc2ccc(F)cc2)s1 | – | 20.8 µM
22 | Nc1c(C(=O)NC2CCCCC2)nsc1C(=O)OCC(=O)NC1CCCCC1 | 93.5% (inactive) | –
23 | Cc1nc(SCC(=O)NC2CCCCC2)[nH]c(=O)c1C | 91.7% (inactive) | –
24 | CCOC(=O)COn1c2c(c3c4no[n+]([O-])c4ccc31)CCCC2 | 87.9% (inactive) | –
25 | COC(=O)C(Nc1nc(SCC(=O)NC2CCCCC2)nc2ccccc12)c1ccccc1 (stereo unspecified) | – | 88 µM
26 | COC(=O)C(C)Oc1ccc(-c2nccc(-c3ccccn3)n2)cc1 (stereo unspecified) | 100% (inactive) | –
27 | COC(=O)C1CC(=O)N(c2ccc(OCc3ccccc3Cl)cc2)C1 (stereo unspecified) | 100% (inactive) | –
28 | Cc1ccc2ccc3ccc(C)nc3c2n1 | 68.3% (inactive) | –
29 | O=C1C(Br)=Cc2cccc3cccc1c23 | 89.2% (inactive) | –
30 | S=c1nc[nH]c2nc[nH]c12 | – | 38.1 µM
31 | COc1cc(NC(=O)C/C(C)=N/NC(=O)c2ccccn2)c(OC)cc1Cl | 103% (inactive) | –
